Patent US10874103B2, “Antibacterial composition comprising an acetal or a long-chain alkyl hexitane ether” (TEREOS STARCH & SWEETENERS BELGIUM, priority 2014, dated 2020)

Assays:
Type in all cases: cell-based
[1] = tested on: Enterococci: E. faecalis strains; experiment: MIC microdilution on wider panel (Example 8), E. faecalis strains
Experimental: The cultures studied, freshly isolated (after incubation on a blood agar at 37° C. for 18 h), are taken up in sterile water (10 mL) until a 0.5 McFarland (Mc) suspension i.e. at 1 to 2×10^8 CFU (bacteria)/cm^3 is obtained. The bacterial suspension was then diluted to obtain a final concentration of 1×10^6 CFU/cm^3. Each well contains an identical quantity of Mueller-Hinton medium (a rich medium for bacterial culture) and bacteria with final 0.5×10^6 CFU/cm^3. The test compounds of interest are solubilized in ethanol or DMSO at 25 mg/mL before being diluted to different concentrations two by two. On the multiwell plate, a first series has been planned comprising the culture medium without the test compound of interest. It corresponds to the growth control (control well). These controls serve as reference for comparing bacterial growth with that of the subsequent wells comprising different concentrations of the test compound of interest. The second series of wells comprises the mother solution for the test compound of interest for a concentration in the wells of 256 mg (7 mM). Each series of wells was diluted two by two until the last series for a final concentration of 0.25 mg/L (0.0007 mM). Each concentration is duplicated in the same plate. The plate is incubated for 18 h at 37° C. […] If there is antibacterial activity, the bacterial growth is inhibited, which means that no turbidity or bacterial residue is present. The minimum inhibitory concentrations (MIC) are tested on Gram-positive bacterial strains according to the recommendations of the “Clinical Laboratory Standards Institute” (Clinical-Laboratory-Standards-Institute, 6th ed. Approved standard M100-S17. CLSI, Wayne, Pa., 2007). The clinical strains have been isolated in the Hospice de Lyon. […]

[2] = tested on: S. aureus (ATCC® 292213™); experiment: MBC, bacterial count from clear wells reseeded on agar (Example 5); details: Table 2
Experimental: (§1) To determine whether the agents tested are bactericidal, the minimum bactericidal concentration (MBC) is determined. The MBC corresponds to the concentration leaving a number of bacterial survivors of <4 log. For this, a bacterial count is run from clear wells or without bacterial residue (C≤MIC). To do this, a dilution to 1/100 was conducted with the two wells with the same concentration before seeding on a blood agar using the Spiral technique. After 24 h of incubation at 37° C., the visual count allowed determination of the minimum concentration from which there is no bacterial growth.
(§2) To determine the bactericidal effect of compounds presenting bacteriostatic properties, the wells no longer presenting turbidity were reseeded on agar.

[3] = tested on: E. faecalis (ATCC® 29212™); experiment: as above; details: Table 2; reseeded on agar
Experimental: as §1, §2

[4] = tested on: L. monocytogenes (CIP 103575); experiment: as above; details: Table 2; reseeded on agar
Experimental: as §1, §2

[5] = tested on: S. aureus (ATCC® 292213™); experiment: MIC, 96-well microplate microdilution (Example 4); details: ATCC 292213; Mueller-Hinton medium, 18 h at 37° C.
Experimental: (§3) The bacteriostatic properties of the derivatives are evaluated by measuring their minimum inhibitory concentration (MIC) on the bacteria tested. Such a measurement is made using the 96-well microplate microdilution method according to the conditions defined below.
(§4) The minimum inhibitory concentrations (MIC) are tested on Gram-positive bacterial strains according to the recommendations of the “Clinical Laboratory Standards Institute” (Clinical-Laboratory-Standards-Institute, 6th ed. Approved standard M100-S17. CLSI, Wayne, Pa., 2007).
(§5) The Gram-positive bacteria studied are as follows: L. monocytogenes (CIP 103575), E. faecalis (ATCC® 29212™) and S. aureus (ATCC® 292213™).
(§6) The cultures studied, freshly isolated (after incubation on a blood agar at 37° C. for 18 h), are taken up in sterile water (10 mL) until a 0.5 McFarland (Mc) suspension i.e. 1 to 2×10^8 CFU (bacteria)/cm^3 is obtained. The bacterial suspension was then diluted to obtain a final concentration of 5×10^5 CFU/cm^3.
(§7) Each well contains an identical quantity of Mueller-Hinton medium (a rich medium for bacterial culture) and bacteria with final 5×10^5 CFU/cm^3.
(§8) The test compounds of interest are solubilized in 2.5% m of ethanol before being diluted to different concentrations two by two.
(§9) On the multiwell plate, a first series has been planned comprising the culture medium without the test compound of interest. It corresponds to the growth control (control well). These controls serve as reference for comparing bacterial growth with that of the subsequent wells comprising different concentrations of the test compound of interest. The second series of wells comprises the mother solution for the test compound of interest for a concentration in the wells of 4 mM. Each series of wells was diluted two by two until the last series for a final concentration of 0.003 mM. Each concentration is duplicated in the same plate. The plate is incubated for 18 h at 37° C. […] If there is antibacterial activity, the bacterial growth is inhibited, which means that no turbidity or bacterial residue is present.
(§10) Tests have been conducted on Gram-positive bacteria with sorbitan derivatives. […] After sterilization the solutions are diluted in water. The results obtained for antimicrobial tests on the 3 bacterial strains L. monocytogenes (CIP 103575), E. faecalis (ATCC® 29212™) and S. aureus (ATCC® 292213™) are summarized in Table 1.

[6] = tested on: E. faecalis (ATCC® 29212™); experiment: MIC, 96-well microplate microdilution (Example 4); details: Mueller-Hinton medium, 18 h at 37° C.
Experimental: as §3, §4, §5, §6, §7, §8, §9, §10

[7] = tested on: L. monocytogenes (CIP 103575); experiment: MIC, 96-well microplate microdilution (Example 4); details: Mueller-Hinton medium, 18 h at 37° C.
Experimental: as §3, §4, §5, §6, §7, §8, §9, §10

[8] = tested on: L. monocytogenes (CIP 103575), E. faecalis (ATCC® 29212™) and S. aureus (ATCC® 292213™); experiment: MIC microdilution, statements for all three Gram-positive strains together; details: listed as Sorbitan dodecyl ether
Experimental: as §3, §4, §5, §6, §7, §8
On the multiwell plate, a first series has been planned comprising the culture medium without the test compound of interest. […]

Dodecyl-1,4-d-sorbitan [Example 2e]
8 µg/mL: Minimum inhibitory concentration (MIC) ATCC 29212 ([1]; E. faecalis ATCC 29212) | Minimum inhibitory concentration (MIC) 1801 ([1]; clinical E. faecalis from urines, strain 015205261801)
16 µg/mL: Minimum inhibitory concentration (MIC) 9901 ([1]; clinical E. faecalis from urines, strain 015206179901)
120 µM: minimum bactericidal concentration (MBC) S. aureus [2] | minimum bactericidal concentration (MBC) E. faecalis [3] | minimum bactericidal concentration (MBC) L. monocytogenes [4] | Minimum inhibitory concentration (MIC) S. aureus [5] | Minimum inhibitory concentration (MIC) E. faecalis [6] | Minimum inhibitory concentration (MIC) L. monocytogenes [7] | MIC / inhibitory concentration on the bacterial strains studied [8]
